# Measurements from patent US7589123B2, “Chemical compounds” (Phytopharm PLC, priority 2006, dated 2009).
# Columns and labels:
# TRPV1 receptor [1] = molecular target: T1, TRPV1 receptor (Rattus norvegicus, UniProt O35433); assay: TRPV1 modulation in DRG neurones: CGRP release in absence and presence of capsaicin (Assay 2); type: cell-based; design: The culture used for this experiment contained sensory neurones, Schwann cells and fibroblasts; endogenous in cells; host or cells: primary rat DRG sensory neurone culture (with Schwann cells and fibroblasts); details: for Effect of test compounds on capsaicin (1 μM)-induced CGRP release (%): −ve: inhibition, +ve: potentiation of capsaicin response; for CGRP release (% of capsaicin (1 μM) response): rat DRG sensory neurones, 20 min
# [2] = tested on: α-smooth muscle actin (α-SMA) mRNA; assay: Anti-remodelling activity in human lung fibroblasts (HFL1): TGFβ-induced α-SMA mRNA (Assay 4); type: cell-based; details: HFL1 cells, TGFβ 10 ng/ml, 24 h
# How it was run: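 Real-time RT-PCR of α-SMA mRNA, GAPDH as reference, measured after 24 h exposure of low-serum-primed HFL1 cells to 10 ng/ml TGFβ with test compounds (3 and 30 μM) in 10% FBS medium. Readout is inhibition of TGFβ-driven α-SMA mRNA overexpression.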
# 5-lipoxygenase = molecular target: T2, 5-lipoxygenase (Homo sapiens, UniProt P09917); assay: 5-lipoxygenase activity (LTB4) in human peripheral blood mononuclear leukocytes (Assay 6); type: cell-based; details: human PBMLs, A23187 30 μM
# T2 construct: endogenous in cells; host or cells: human peripheral blood mononuclear leukocytes (PBMLs)
# T2 sequence (P09917 1-674): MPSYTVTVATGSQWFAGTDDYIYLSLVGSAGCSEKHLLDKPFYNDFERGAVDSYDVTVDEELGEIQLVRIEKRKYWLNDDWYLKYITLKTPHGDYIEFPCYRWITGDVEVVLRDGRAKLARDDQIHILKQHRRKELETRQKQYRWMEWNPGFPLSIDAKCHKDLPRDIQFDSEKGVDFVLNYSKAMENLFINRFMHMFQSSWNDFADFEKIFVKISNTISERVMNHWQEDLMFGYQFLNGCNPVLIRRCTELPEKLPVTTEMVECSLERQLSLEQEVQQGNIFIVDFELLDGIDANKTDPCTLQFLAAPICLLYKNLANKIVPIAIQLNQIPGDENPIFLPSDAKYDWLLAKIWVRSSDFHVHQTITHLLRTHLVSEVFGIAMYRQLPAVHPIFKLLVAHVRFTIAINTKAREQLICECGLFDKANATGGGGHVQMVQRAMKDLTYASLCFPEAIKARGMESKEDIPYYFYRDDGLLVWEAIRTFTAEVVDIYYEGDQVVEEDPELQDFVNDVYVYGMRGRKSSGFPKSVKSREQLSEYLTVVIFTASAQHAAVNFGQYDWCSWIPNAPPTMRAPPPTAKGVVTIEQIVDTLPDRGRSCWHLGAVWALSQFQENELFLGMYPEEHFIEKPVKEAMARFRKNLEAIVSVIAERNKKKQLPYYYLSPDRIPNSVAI
# How it was run: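 LTB4 in supernatant quantified by EIA after 15 min at 37° C. in HBSS, pH 7.4, where Ficoll-isolated human PBMLs (5×10^6) received ionophore A23187 (30 μM) and test compound (3 and 30 μM) or 0.1% DMSO vehicle.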
# guinea pig ileum = assay: Effect of test compound alone on guinea pig ileum contraction (Assay 3)
# Description: Duncan Hartley derived male guinea pigs (325±25 g) were suppressed by CO2 overexposure, the abdominal cavity was exposed and ileal segments were removed. Small strips of ileum were suspended in organ baths containing Krebs solution (composition in g/l: NaCl 6.89, KCl 0.35, CaCl2 0.277, KH2PO4 0.163, MgSO4.7H2O 0.296, NaHCO3 2.1 glucose 1.8). The solution was kept at 32° C. and gassed with O2 (95%)-CO2 (5%) to maintain pH at 7.4. Mechanical activity was recorded by means of isotonic transducers. A resting tension of 1 g was applied to muscle strips before being equilibrated for 1 h, prior to test compound addition. Each preparation was washed twice at 15 min intervals during the equilibration.
# Histamine (1.7 μM; approximately EC60-70) or 5-hydroxytryptamine (5-HT, 2.6 μM; approximately EC60-70) was applied for 5 min and the amplitude of the contraction recorded. The histamine or 5-HT was then washed out until the ileal tissue returned to baseline. Five min after returning to baseline test compound (3 and 30 μM) was applied and the amplitude of the contraction (if any) was recorded. In the continuous presence of test compound, histamine or 5-HT was re-applied and the inhibition of the response was recorded.
# WI-38 cells = assay: Viability of WI-38 cells, Alamar Blue (Assay 5); type: cell-based, human
# How it was run: (§1)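 Cell viability was read by Alamar Blue fluorescence (530/590 nm) after 4 h at 37 °C, following an overnight 37 °C incubation of human lung fibroblasts with 1 nM IL-1α and compound (3 or 30 μM) in 10% FBS MEM, pH 7.3. Supernatant PGE2 was measured by radioimmunoassay to derive percent inhibition.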
# [3] = tested on: histamine-induced contractions in guinea pig ileum; assay: Inhibition of histamine-induced contractions in guinea pig ileum (Assay 3); details: histamine 1.7 μM
# How it was run: (§2)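 Ileal strips from male Duncan Hartley guinea pigs were held at 1 g tension in 32° C oxygenated Krebs (pH 7.4) with isotonic transducers. After control contractions to 5-HT (2.6 μM) or histamine (1.7 μM), compound at 3 and 30 μM was added, its own effect noted, and agonist re-applied.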
# [4] = tested on: IL-1α-induced PGE2 release; assay: IL-1α-induced PGE2 release in human diploid lung fibroblasts (WI-38) (Assay 5); type: cell-based; details: WI-38 cells, IL-1α 1 nM, overnight
# How it was run: as §1
# [5] = tested on: 5-HT-induced contractions in guinea pig ileum; assay: Inhibition of 5-HT-induced contractions in guinea pig ileum (Assay 3); details: 5-HT 2.6 μM
# How it was run: as §2
# TRPV1 receptor [6] = molecular target: T1, TRPV1 receptor; assay: TRPV1 receptor modulation in the rat vas deferens, EFS-induced contraction (Assay 1); details: electrical field stimulation
# Description: Wistar derived male rats (275±25 g) were suppressed by CO2 overexposure. The vas deferens was removed, placed in Krebs solution, pH 7.4 (composition in g/l: NaCl 6.89, KCl 0.35, CaCl2 0.277, KH2PO4 0.163, MgSO4.7H2O 0.296, NaHCO3 2.1 glucose 1.8) and excess fat and connective tissue removed. The portion of the vas deferens closest to the prostate was cut in half and each half was placed under 1 g tension in a 10 ml bath containing Krebs solution at 32° C. The tissue was contracted by electrical field stimulation (EFS; 60% of maximum stimulation, 0.015 Hz, 0.5 ms in duration) and contractile responses were measured.
# T1 sequence (O35433 whole entry): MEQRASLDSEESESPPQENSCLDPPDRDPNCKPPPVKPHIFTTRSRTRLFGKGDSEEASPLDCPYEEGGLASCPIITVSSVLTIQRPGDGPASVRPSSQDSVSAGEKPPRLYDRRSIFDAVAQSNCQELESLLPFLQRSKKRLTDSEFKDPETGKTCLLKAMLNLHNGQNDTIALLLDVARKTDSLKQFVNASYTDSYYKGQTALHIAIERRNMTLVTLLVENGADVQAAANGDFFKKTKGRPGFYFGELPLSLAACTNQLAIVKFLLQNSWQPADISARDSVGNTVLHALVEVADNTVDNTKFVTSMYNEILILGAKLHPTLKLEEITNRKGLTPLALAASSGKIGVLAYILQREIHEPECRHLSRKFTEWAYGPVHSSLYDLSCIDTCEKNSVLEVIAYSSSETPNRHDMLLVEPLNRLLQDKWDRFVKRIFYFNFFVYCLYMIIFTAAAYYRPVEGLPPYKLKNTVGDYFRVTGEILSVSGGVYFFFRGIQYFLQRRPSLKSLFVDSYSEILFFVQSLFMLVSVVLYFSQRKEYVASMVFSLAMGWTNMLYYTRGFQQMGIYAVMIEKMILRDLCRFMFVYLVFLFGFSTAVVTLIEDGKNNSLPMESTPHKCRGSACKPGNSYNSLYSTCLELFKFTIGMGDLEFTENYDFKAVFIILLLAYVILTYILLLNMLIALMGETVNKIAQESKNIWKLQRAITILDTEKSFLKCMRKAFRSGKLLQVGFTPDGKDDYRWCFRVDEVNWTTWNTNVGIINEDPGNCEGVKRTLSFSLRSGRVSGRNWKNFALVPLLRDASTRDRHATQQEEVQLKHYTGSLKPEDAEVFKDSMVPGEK
Compound,Effect of test compounds on capsaicin (1 μM)-induced CGRP release (%) (TRPV1 receptor [1]; 3 μM with capsaicin 1 μM),Effect of test compounds on capsaicin (1 μM)-induced CGRP release (%) (TRPV1 receptor [1]; 30 μM with capsaicin 1 μM),CGRP release (% of capsaicin (1 μM) response) (TRPV1 receptor [1]; test compound alone 3 μM) [%],CGRP release (% of capsaicin (1 μM) response) (TRPV1 receptor [1]; test compound alone 30 μM) [%],Inhibition of α-SMA mRNA synthesis (%) ([2]; 3 μM),Inhibition of α-SMA mRNA synthesis (%) ([2]; 30 μM),Inhibition of 5-LO (%) (5-lipoxygenase; 3 μM),Inhibition of 5-LO (%) (5-lipoxygenase; 30 μM),Contraction of guinea pig ileum relative to 5-HT-induced contraction (guinea pig ileum; 3 μM),Contraction of guinea pig ileum relative to histamine-induced contraction (guinea pig ileum; 3 μM),Contraction of guinea pig ileum relative to 5-HT-induced contraction (guinea pig ileum; 30 μM),Contraction of guinea pig ileum relative to histamine-induced contraction (guinea pig ileum; 30 μM),Decrease in cell viability (%) (WI-38 cells; 3 μM),Decrease in cell viability (%) (WI-38 cells; 30 μM),Inhibition of histamine-induced contraction (%) ([3]; 3 μM),Inhibition of histamine-induced contraction (%) ([3]; 30 μM),Inhibition of IL-1α-induced PGE2 release (%) ([4]; 3 μM),Inhibition of IL-1α-induced PGE2 release (%) ([4]; 30 μM),Inhibition of 5-HT-induced contraction (%) ([5]; 3 μM),Inhibition of 5-HT-induced contraction (%) ([5]; 30 μM),also measured
"COc1cc(CCC(=O)CC(=O)c2ccc(Cl)cc2Cl)ccc1O [Compound 24, 1-(2,4-Dihlorophenyl)-5-(4-hydroxy-3-methoxyphenyl)pentane-1,3-dione]",−13,2,92,193,8,80,45,97,0,0,0,0,7,26,12,59,93,100,5,98,
COc1cc(CCC(=O)CC(=O)C(C)C)ccc1O [Compound 1],−36,−24,26,41,12,34,26,63,0,0,0,0,3,−10,0,11,68,101,0,20,Inhibition of EFS response relative to capsaicin (TRPV1 receptor [6]): 27%
"CCC(=O)CC(=O)CCc1ccc(O)c(OC)c1 [3-gingerdione, reference compound]",−37,−43,17,18,13,24,−5,73,0,0,0,0,4,5,5,14,61,99,0,5,
"COc1cc(CCC(=O)CC(=O)c2ccc(Cl)c(Cl)c2)ccc1O [Compound 23, 1-(3,4-Dihlorophenyl)-5-(4-hydroxy-3-methoxyphenyl)pentane-1,3-dione]",−2,47,84,242,13,79,63,98,0,0,0,0,6,16,8,37,84,100,11,25,
